Laboratory results reported in patent US8884030B2, “Inhibitors of Flaviviridae viruses” (priority 2010, dated 2014).

Tested on: human hepatoma Huh-7 cell line harboring a HCV replicon
Experiment: HCV replicon assay (inhibition of viral replication, luciferase)
Format: cell-based
Details: Hepatitis C virus, 72 h; 2 μM; Huh-7 HCV replicon cells, 3 days incubation; inhibition of viral replication; read-out: % inhibition at 2 μM
Protocol: The anti-HCV activity of the compounds of this invention was tested in a human hepatoma Huh-7 cell line harboring a HCV replicon. The assay comprised the following steps:
Step 1: Compound Preparation and Serial Dilution.
Serial dilution was performed in 100% DMSO in a 384-well plate. A solution containing a compound at 225-fold concentration of the starting final serial dilution concentration was prepared in 100% DMSO and 15 uL added to the pre-specified wells in column 3 or 13 of a polypropylene 384-well plate. The rest of the 384-well plate was filled with 10 uL 100% DMSO except for columns 23 and 24, where 10 uL of 500 uM a HCV protease inhibitor (ITMN-191) in 100% DMSO was added. The HCV protease inhibitor was used a control of 100% inhibition of HCV replication. The plate was then placed on a Biomek FX Workstation to start the serial dilution. The serial dilution was performed for ten cycles of 3-fold dilution from column 3 to 12 or from column 13 to 22.
Step 2: Cell Culture Plate Preparation and Compound Addition
To each well of a black polypropylene 384-well plate, 90 μL of cell media containing 1600 suspended Huh-7 HCV replicon cells was added with a Biotek uFlow Workstation. A volume of 0.4 μL of the compound solution was transferred from the serial dilution plate to the cell culture plate on a Biomek FX Workstation. The DMSO concentration in the final assay condition was 0.44%. The plates were incubated for 3 days at 37° C. with 5% CO2 and 85% humidity.
Step 3: Detection of Cytotoxicity and Inhibition of Viral Replication
a) Assessment of cytotoxicity: The media in the 384-well cell culture plate was aspirated with a Biotek EL405 plate-washer. A volume of 50 μL of a solution containing 400 nM Calcein AM in 100% PBS was added to each well of the plate with a Biotek uFlow Workstation. The plate was incubated for 30 minutes at room temperature before the fluorescence signal ([…]) was measured with a Perkin Elmer Envision Plate Reader.
b) Assessment of inhibition of viral replication: The calcein-PBS solution in the 384-well cell culture plate was aspirated with a Biotek EL405 plate-washer. A volume of 20 μL of Dual-Glo luciferase buffer (Promega, Dual-Glo Luciferase Assay Reagent, cat. #E298B) was added to each well of the plate with a Biotek uFlow Workstation. The plate was incubated for 10 minutes at room temperature. A volume of 20 μL of a solution containing 1:100 mixture of Dual-Glo Stop & Glo substrate(Promega, Dual-Glo Luciferase Assay Reagent, cat. #E313B) and Dual-Glo Stop & Glo buffer (Promega, Dual-Glo Luciferase Assay Reagent, cat. #E314B) was then added to each well of the plate with a Biotek uFlow Workstation. The plate was incubated at room temperature for 10 minutes before the luminescence signal was measured with a Perkin Elmer Envision Plate Reader.
The percent cytotoxicity was determined by calcein AM conversion to fluorescent product. The average fluorescent signal from the DMSO control wells were defined as 100% nontoxic. The individual fluorescent signal from testing compound treated well was divided by the average signal from DMSO control wells and then multiplied by 100% to get the percent viability. The percent anti-HCV replication activity was determined by the luminescence signal from the testing well compared to DMSO controls wells. The background signal was determined by the average luminescence signal from the HCV protease inhibitor treated wells and was subtracted from the signal from the testing wells as well as the DMSO control wells. Following 3-fold serial dilutions, the EC50 and CC50 values were calculated by fitting % inhibition at each concentration to the following equation: % inhibition=100%[(EC50/[l])^b+1]
Where b is Hill's coefficient. See, for reference, Hill, A. V., The Possible Effects of the Aggregation of the Molecules of Hæmoglobin on its Dissociation Curves, J. Physiol. 40: iv-vii. (1910). […]

SMILES	inhibition at 2 µM
CC(C)(C)C#Cc1cc(N(C(=O)[C@H]2CC[C@H](C)CC2)C2CCN(C(=O)OC3(C)CCNC3)CC2)c(C(=O)O)s1 (stereo partly drawn) [Compound 72, 4-[[2-Carboxy-5-(3,3-dimethyl-but-1-ynyl)-thiophen-3-yl]-(trans-4-methyl-cyclohexanecarbonyl)-amino]-piperidine-1-carboxylic acid 3-methyl-pyrrolidin-3-yl ester]	99.7%
CC(C)(C)C#Cc1cc(N(C(=O)[C@H]2CC[C@H](C)CC2)C2CCN(C(=O)OC3(C)CN(C(=O)OC(C)(C)C)C3)CC2)c(C(=O)O)s1 [Compound 73, 4-[[2-carboxy-5-(3,3-dimethyl-but-1-ynyl)-thiophen-3-yl]-(trans-4-methyl-cyclohexanecarbonyl)-amino]-piperidine-1-carboxylic acid 1-tert-butoxycarbonyl-3-methyl-azetidin-3-yl ester]	93.1%
CC(C)(C)C#Cc1cc(N(C(=O)[C@H]2CC[C@H](C)CC2)C2CCN(C(=O)OC3CCS(=O)(=O)C3)CC2)c(C(=O)O)s1 (stereo partly drawn) [Compound 74, 4-[[2-carboxy-5-(3,3-dimethyl-but-1-ynyl)-thiophen-3-yl]-(trans-4-methyl-cyclohexanecarbonyl)-amino]-piperidine-1-carboxylic acid 1,1-dioxo-tetrahydro-1λ^6-thiophen-3-yl ester]	99.7%
CC(C)(C)C#Cc1cc(N(C(=O)[C@H]2CC[C@H](C)CC2)C2CCC(NC(=O)OC3(C)CCN(C(=O)OC(C)(C)C)C3)CC2)c(C(=O)O)s1 (some centres unmarked) [Compound 75]	97.5%
CC(C)(C)C#Cc1cc(N(C(=O)[C@H]2CC[C@H](C)CC2)C2CCC(NC(=O)OC3(C)CCNC3)CC2)c(C(=O)O)s1 (stereo partly drawn) [Compound 76, 5-(3,3-Dimethyl-but-1-ynyl)-3-{(trans-4-cyclohexanecarbonyl)-[4-(3-methyl-pyrrolidin-3-yloxycarbonylamino)-cyclohexyl]-amino}-thiophene-2-carboxylic acid]	99.4%
CC(C)(C)C#Cc1cc(N(C(=O)[C@H]2CC[C@H](C)CC2)C2CCC(NC(=O)OC3CCS(=O)(=O)C3)CC2)c(C(=O)O)s1 (stereo partly drawn) [Compound 77, 5-(3,3-dimethyl-but-1-ynyl)-3-[[4-(1,1-dioxo-tetrahydro-1λ^6-thiophen-3-yloxycarbonylamino)-cyclohexyl]-(trans-4-methylcyclohexanecarbonyl)-amino]-thiophene-2-carboxylic acid]	99.9%
CC1CCC(C(=O)N(c2cc(C#CC(C)(C)C)sc2C(=O)O)C2CCC(NN(C)c3ccccn3)CC2)CC1 (centres unmarked) [Compound 79, 5-(3,3-Dimethyl-but-1-ynyl)-3-{(4-methyl-cyclohexanecarbonyl)-[4-(N′-methyl-N′-pyridin-2-yl-hydrazino)-cyclohexyl]-amino}-thiophene-2-carboxylic acid]	100%
CN(NC1CCC(N(c2cc(C#CC(C)(C)C)sc2C(=O)O)C(=O)[C@H]2CC[C@H](C)CC2)CC1)c1cnccn1 (some centres unmarked) [Compound 80, 5-(3,3-Dimethyl-but-1-ynyl)-3-{(4-methyl-cyclohexanecarbonyl)-[4-(N′-methyl-N′-pyrazin-2-yl-hydrazino)-cyclohexyl]-amino}-thiophene-2-carboxylic acid]	99.8%
CC1CCC(C(=O)N(c2cc(C#CC(C)(C)C)sc2C(=O)O)C2CCC(NN(C)c3nccs3)CC2)CC1 (centres unmarked) [Compound 81, 5-(3,3-Dimethyl-but-1-ynyl)-3-{(4-methyl-cyclohexanecarbonyl)-[4-(N′-methyl-N′-thiazol-2-yl-hydrazino)-cyclohexyl]-amino}-thiophene-2-carboxylic acid]	100%
CC1CCC(C(=O)N(c2cc(C#CC(C)(C)C)sc2C(=O)O)C2CCC(NN(C)c3ccc(O)nn3)CC2)CC1 (centres unmarked) [Compound 82, 5-(3,3-Dimethyl-but-1-ynyl)-3-[{4-[N′-(6-hydroxy-pyridazin-3-yl)-N′-methyl-hydrazino]-cyclohexyl}-(4-methyl-cyclohexanecarbonyl)-amino]-thiophene-2-carboxylic acid]	100%
CC1CCC(C(=O)N(c2cc(C#CC(C)(C)C)sc2C(=O)O)C2CCC(NN(C)c3ccc(Cl)nn3)CC2)CC1 (centres unmarked) [Compound 83, 3-[{4-[N′-(6-Chloro-pyridazin-3-yl)-N′-methyl-hydrazino]-cyclohexyl}-(4-methyl-cyclohexanecarbonyl)-amino]-5-(3,3-dimethyl-but-1-ynyl)-thiophene-2-carboxylic acid]	99.9%
CC(C)(C)C#Cc1cc(N(C(=O)[C@H]2CC[C@H](C)CC2)C2CCC(=NOCc3ccccn3)CC2)c(C(=O)O)s1 (stereo partly drawn) [Compound 112, 5-(3,3-Dimethyl-but-1-ynyl)-3-{(4-trans-methyl-cyclohexanecarbonyl)-[4-(pyridin-2-ylmethoxyimino)-cyclohexyl]-amino}-thiophene-2-carboxylic acid]	99.9%
CC(C)(C)C#Cc1cc(N(C(=O)[C@H]2CC[C@H](C)CC2)C2CCC(=NOCc3ccccc3)CC2)c(C(=O)O)s1 (some centres unmarked) [Compound 113]	98.1%
CC(C)(C)C#Cc1cc(N(C(=O)[C@H]2CC[C@H](C)CC2)C2CCC(=NOCn3cncn3)CC2)c(C(=O)O)s1 (some centres unmarked) [Compound 114, 3-(N-(4-((1H-1,2,4-Triazol-1-yl)methoxyimino)cyclohexyl)-4-methylcyclohexanecarboxamido)-5-(3,3-dimethylbut-1-ynyl)thiophene-2-carboxylic acid]	100%
CC(C)(C)C#Cc1cc(N(C(=O)[C@H]2CC[C@H](C)CC2)C2CCC(=NOCC(=O)O)CC2)c(C(=O)O)s1 (some centres unmarked) [Compound 115, 3-(N-(4-(Carboxymethoxyimino)cyclohexyl)-4-methylcyclohexanecarboxamido)-5-(3,3-dimethylbut-1-ynyl)thiophene-2-carboxylic acid]	99.8%
CC(C)(C)C#Cc1cc(N(C(=O)[C@H]2CC[C@H](C)CC2)C2CCC(=NOCC#N)CC2)c(C(=O)O)s1 (some centres unmarked) [Compound 116, 3-(N-(4-(Cyanomethoxyimino)cyclohexyl)-4-methylcyclohexanecarboxamido)-5-(3,3-dimethylbut-1-ynyl)thiophene-2-carboxylic acid]	99.9%
CC1CCC(C(=O)N(c2cc(C#CC(C)(C)C)sc2C(=O)O)C2CCC(=NOCc3ccncc3)CC2)CC1 (centres unmarked) [Compound 117, 5-(3,3-Dimethylbut-1-ynyl)-3-(4-methyl-N-(4-(pyridin-4-ylmethoxyimino)cyclohexyl)cyclohexanecarboxamido)thiophene-2-carboxylic acid]	99.9%
CC1CCC(C(=O)N(c2cc(C#CC(C)(C)C)sc2C(=O)O)C2CCC(=NOCc3cccnc3)CC2)CC1 (centres unmarked) [Compound 118, 5-(3,3-Dimethylbut-1-ynyl)-3-(4-methyl-N-(4-(pyridin-3-ylmethoxyimino)cyclohexyl)cyclohexanecarboxamido)thiophene-2-carboxylic acid]	100%
CC(C)(C)C#Cc1cc(N(C(=O)[C@H]2CC[C@H](C)CC2)C2CCC(=NOc3ccccc3)CC2)c(C(=O)O)s1 (some centres unmarked) [Compound 119, 5-(3,3-Dimethylbut-1-ynyl)-3-(4-methyl-N-(4-(phenoxyimino)cyclohexyl)cyclohexanecarboxamido)thiophene-2-carboxylic acid]	97.1%
CON=C1CCC(N(C(=O)C2CCC(C)CC2)c2cc(C#CC(C)(C)C)sc2C(=O)O)CC1 (centres unmarked) [Compound 120, 5-(3,3-Dimethylbut-1-ynyl)-3-(N-(4-(methoxyimino)cyclohexyl)-4-methylcyclohexanecarboxamido)thiophene-2-carboxylic acid]	99.9%
